Common to all, as to assay type: functional
Assay [1] deals with Mus musculus. Description: Analgesic activity in Mus musculus NMRI (mouse) assessed as inhibition of early phase of formalin-induced nociception at 30 umol/kg, ip administered 30 min before formalin injection relative to control.
The test system of assay [2] is Mus musculus. Briefly: Analgesic activity in Mus musculus NMRI (mouse) assessed as inhibition of late phase of formalin-induced nociception at 30 umol/kg, ip administered 30 min before formalin injection relative to mefenamic acid.
Assay [3] relates to Mus musculus. Description: Analgesic activity in Mus musculus NMRI (mouse) assessed as inhibition of late phase of formalin-induced nociception at 30 umol/kg, ip administered 30 min before formalin injection relative to control.

Turning to `Nc1nnc(-c2ccccc2S(=O)(=O)c2ccccc2)o1`, the figures for the inhibition in vivo at 30 µmol/kg in the assay with Mus musculus [1] and in the assay with Mus musculus [3] were 40.5% and 68.3%, respectively. Besides, the Ratio in the assay on Mus musculus [2] was 0.91.

Consider `Nc1nnc(-c2ccccc2Sc2ccccc2Cl)o1`, for which the inhibition in vivo at 30 µmol/kg with Mus musculus [1] was found to be 26.7%; with Mus musculus [3] it was 67.1%. In addition, the Ratio in the assay with Mus musculus [2] is 0.89.

`S=c1[nH]nc(-c2ccccc2Sc2ccccc2)[nH]1`: the inhibition in vivo at 30 µmol/kg with Mus musculus [1] came to 49.4%; in the assay on Mus musculus [3], 79.6%. Besides, the Ratio in the assay on Mus musculus [2] worked out at 1.06.

As to `[O-][S+](c1ccccc1)c1ccccc1-c1n[nH]c(=S)[nH]1` (stereo not given), the inhibition in vivo at 30 µmol/kg in the assay with Mus musculus [1] turned out to be 31.7%; with Mus musculus [3], 63.3%. In the assay on Mus musculus [2], the Ratio amounted to 0.85.

Turning to `O=S(=O)(c1ccccc1)c1ccccc1-c1n[nH]c(=S)[nH]1`, the inhibition in vivo at 30 µmol/kg with Mus musculus [1] amounted to 31.2%; in the assay on Mus musculus [3] it was 64.9%. In the assay with Mus musculus [2], the Ratio is given as 0.87.

Take `S=c1[nH]nc(-c2ccccc2Sc2ccccc2)o1`: the inhibition in vivo at 30 µmol/kg came out at 13.1% in the assay on Mus musculus [1] and 71.3% in the assay on Mus musculus [3]. Moreover, the Ratio in the assay on Mus musculus [2] came out at 0.95.

As for `[O-][S+](c1ccccc1)c1ccccc1-c1n[nH]c(=S)o1` (stereo not given), the inhibition in vivo at 30 µmol/kg turned out to be 40.9% in the assay on Mus musculus [1] and 86.1% in the assay on Mus musculus [3]. Further, the Ratio in the assay on Mus musculus [2] was 1.15.

Consider `O=S(=O)(c1ccccc1)c1ccccc1-c1n[nH]c(=S)o1`, for which the inhibition in vivo at 30 µmol/kg worked out at 41.9% with Mus musculus [1] and 58% in the assay on Mus musculus [3]. In the assay on Mus musculus [2], the Ratio was 0.77.

`S=c1[nH]nc(-c2ccccc2Sc2ccccc2Cl)o1`: the inhibition in vivo at 30 µmol/kg was 16.8% in the assay with Mus musculus [1] and 80.5% in the assay on Mus musculus [3]. For the same compound, in the assay on Mus musculus [2], the Ratio is 1.06.

For the compound `Nc1nnc(-c2ccccc2Sc2ccccc2)o1`, the inhibition in vivo at 30 µmol/kg in the assay with Mus musculus [1] came to 16.6%; in the assay on Mus musculus [3], 63.7%. For the same compound, the Ratio in the assay on Mus musculus [2] is given as 0.85.

For `Nc1nnc(-c2ccccc2[S+]([O-])c2ccccc2)o1` (stereo not given), the figures for the inhibition in vivo at 30 µmol/kg in the assay on Mus musculus [1] and with Mus musculus [3] were 29.4% and 79.9%, respectively. For the same compound, the Ratio with Mus musculus [2] worked out at 1.07.

With `Cc1cccc(Nc2ccccc2C(=O)O)c1C` [MEFENAMIC ACID], the inhibition in vivo at 30 µmol/kg turned out to be 24.1% with Mus musculus [1] and 74.9% in the assay with Mus musculus [3].

As usually defined, the inhibition in vivo is how much of the control response was suppressed.

Values taken from ChEMBL document CHEMBL3044658, “Synthesis and analgesic activity of new 1,3,4-oxadiazoles and 1,2,4-triazoles” (2011).
